In test [1] the test system is adipocytes humains matures. The test is described as follows: Lipolysis: glycerol released by mature adipocytes (AdipoLyze Detection Assay). The class given is cell-based. The note with it: Adipocyte, read-out: augmentation de la quantité de glycérol secrété par les adipocytes. The text has this: Les préadipocytes primaires sous-cutanés humains fournis par Lonza ont été mis en culture (10 000 cellules/puits dans des plaques de 96 puits) dans un milieu de croissance (PGM-2, Lonza, PT-9502) pendant une nuit. A J1, les cellules ont été mises dans le milieu de différenciation pendant 12 jours pour acquérir les caractéristiques des adipocytes matures. […]

Test [2] addresses T1, Sirt1 (Homo sapiens, UniProt Q96EB6).
T1 construct: purchased Cisbio
T1 sequence (Q96EB6 1-747): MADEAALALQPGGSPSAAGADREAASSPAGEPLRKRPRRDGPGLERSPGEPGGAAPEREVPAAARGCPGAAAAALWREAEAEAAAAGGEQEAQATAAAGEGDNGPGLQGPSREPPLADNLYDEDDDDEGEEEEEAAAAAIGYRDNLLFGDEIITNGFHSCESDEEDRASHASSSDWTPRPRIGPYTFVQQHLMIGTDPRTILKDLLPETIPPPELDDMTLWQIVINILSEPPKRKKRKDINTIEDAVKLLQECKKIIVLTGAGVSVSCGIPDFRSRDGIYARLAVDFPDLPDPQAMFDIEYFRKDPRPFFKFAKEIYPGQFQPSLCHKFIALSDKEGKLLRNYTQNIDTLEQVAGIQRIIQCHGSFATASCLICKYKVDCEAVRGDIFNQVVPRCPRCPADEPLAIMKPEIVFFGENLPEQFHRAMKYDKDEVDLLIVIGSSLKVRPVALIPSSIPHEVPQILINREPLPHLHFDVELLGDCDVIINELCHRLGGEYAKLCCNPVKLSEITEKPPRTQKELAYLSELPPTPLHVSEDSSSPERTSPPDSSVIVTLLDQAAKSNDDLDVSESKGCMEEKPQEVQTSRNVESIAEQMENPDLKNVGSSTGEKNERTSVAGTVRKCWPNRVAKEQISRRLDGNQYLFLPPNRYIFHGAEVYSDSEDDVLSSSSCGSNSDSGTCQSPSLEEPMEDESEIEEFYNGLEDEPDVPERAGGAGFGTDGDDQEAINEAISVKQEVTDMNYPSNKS
Kind of test: HTRF SIRT1 Assay (Cisbio): enzymatic activity of purified Sirt1. The note with it: 0.5 h; at about 2,5 µM (1 µg/ml); vs enzyme without compound; read-out: % d'augmentation de l'activité de Sirt1. The class given is biochemical. The method, then: L'activité enzymatique de Sirt1 a été évaluée à l'aide du kit «HTRF^R SIRT1 Assay » vendu par la Société Cisbio. Lors de ces expériences, l'enzyme purifiée a été incubée à température ambiante en présence du NAD (cofacteur) de son substrat acétylé et du composé à tester utilisé aux concentrations variant de 0,24 µM à 280 µM. « SIRT1 Activator 3 », un activateur commercial de Sirt1 a été utilisé comme un contrôle positif. Après 30 min d'incubation, la réaction enzymatique est arrêtée et la quantité de substrat acétylé restante est évaluée à l'aide d'un anticorps spécifique.
Une augmentation de l'activité enzymatique de Sirt1 en présence des composés décrits s'est traduite par une diminution de la quantité d'anticorps capable de se fixer sur le substrat et donc par une diminution de l'émission de fluorescence qui en résulte, comparé à la valeur obtenue avec l'enzyme seule. Les résultats sont exprimés en % d'augmentation de l'activité de Sirt1 par rapport à celle obtenue avec l'enzyme sans ajout des composés.

[3] abbreviates: 50 µM, mature adipocytes treated 72h, culture supernatant.

Read-outs that look alike come from different tables or passages of the source.

The results in this text go back to patent EP2879657B1, “NOVEL SIRT1 ACTIVATORS AND PHARMACEUTICAL OR COSMETIC COMPOSITIONS COMPRISING THEM” (Centre National de la Recherche Scientifique (C.N.R.S.), priority 2012, dated 2014).

Regarding `CC(=O)N[C@H]1CC[C@@]2(C)C(=CC[C@H]3[C@@H]4CC[C@H]([C@H](C)NC(C)=O)[C@@]4(COC(C)=O)CC[C@@H]32)C1` (single isomer, unassigned; diac) [C3, Acétatede 3 β, 20 α-diacétamido-pregn-5-en-18-ol], the activation at 50 µM in test [1] (setting [3]) was 18%.
On the same count and under the same terms, next, `CC(=O)N(C)[C@H]1CC[C@@]2(C)C(=CC(=O)[C@H]3[C@@H]4CC[C@@H]5[C@H](C)OC(=O)[C@@]54CC[C@@H]32)C1` [C5, Acide 20 α-hydroxy-3 β-(N-méthylacétamido)-7-oxo-, γ-lactone pregn-5-èn-18-oïque]: 14%.
With `CC(=O)N(C)[C@H]1CC[C@@]2(C)C(=C[C@H](O)[C@H]3[C@@H]4CC[C@@H]5[C@H](C)OC(=O)[C@@]54CC[C@@H]32)C1` [C4, Acide 3-(acétylméthylamino)-7,20-dihydroxy-, γ-lactone, (3 β, 7 β ,20S)-pregn-5-èn-18-oïque], in test [2], the activation at 2.5 µM is greater than 50%. In addition, the activation at 50 µM in test [1] (setting [3]) stood at 10%.
As for `C[C@@H]([C@H]1CC[C@H]2[C@@H]3CC[C@H]4C[C@@H](O)CC[C@]4(C)[C@H]3CC[C@]12C)N(C)C` [C1, 20-(diméthylamino)-, (3β,5α,20S)-pregnan-3-ol], the activation at 2.5 µM in test [2] was greater than 50%. For the same molecule, in test [1] (72 h), the activation at 50 µM came to 44%.
For the molecule `CC(=O)N(C)[C@H]1CC[C@@]2(C)[C@@H](CC[C@@H]3[C@@H]2CC[C@]2(C)[C@@H]([C@H](C)N(C)C)CC[C@@H]32)C1` [C2, N-[(3 β, 5 α, 20S)-20-(diméthylamino)pregnan-3-yl]-N-méthyl-acétamide], the activation at 50 µM in test [1] (setting [3]) stood at 24%.
`CC(=O)N(C)[C@H]1CC[C@@]2(C)C(=CC[C@H]3[C@@H]4CC[C@@H]5[C@H](C)N(C(C)=O)C[C@@]54CC[C@@H]32)C1` [C6, N-acétyl-3 β-(N-méthylacétamido)-norcon-5-énine]: in test [2], the activation at 2.5 µM was greater than 50%. The activation at 50 µM in test [1] (setting [3]) worked out at 41%.
